Measurements from PubChem BioAssay (NCI).
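Each compound was tested at five concentrations against cells in 96-well plates for 48 hours. GI50 marks 50% less growth. TGI denotes the concentration required for complete inhibition of growth.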

Legend:
Assay in all cases: NCI anticancer screen, dose series, 48 h; in the data active = GI50 below about 0.43 µM; inactive = the rest
SN12C renal = test system: SN12C renal
SK-MEL-5 melanoma = test system: SK-MEL-5 melanoma
HCT-116 colon = test system: HCT-116 colon
MCF7 breast = test system: MCF7 breast
SF-295 CNS = test system: SF-295 CNS
HOP-62 NSCLC = test system: HOP-62 NSCLC
SW-620 colon = test system: SW-620 colon
RPMI-8226 leukemia = test system: RPMI-8226 leukemia
HCT-15 colon = test system: HCT-15 colon
TK-10 renal = test system: TK-10 renal
SK-MEL-28 melanoma = test system: SK-MEL-28 melanoma
OVCAR-3 ovarian = test system: OVCAR-3 ovarian
SR leukemia = test system: SR leukemia
U251 CNS = test system: U251 CNS
A549 NSCLC = test system: A549 NSCLC
HT29 colon = test system: HT29 colon
COLO 205 colon = test system: COLO 205 colon
NCI-H460 lung = test system: NCI-H460 lung
LOX IMVI melanoma = test system: LOX IMVI melanoma
SNB-19 CNS = test system: SNB-19 CNS
M14 melanoma = test system: M14 melanoma
MDA-MB-435 = test system: MDA-MB-435
OVCAR-8 ovarian = test system: OVCAR-8 ovarian
PC-3 prostate = test system: PC-3 prostate
NCI-H23 lung = test system: NCI-H23 lung
A498 renal = test system: A498 renal
T-47D breast = test system: T-47D breast
HOP-92 NSCLC = test system: HOP-92 NSCLC
UACC-62 melanoma = test system: UACC-62 melanoma
DU-145 prostate = test system: DU-145 prostate
RXF 393 renal = test system: RXF 393 renal
ACHN renal = test system: ACHN renal
MALME-3M melanoma = test system: MALME-3M melanoma
OVCAR-5 ovarian = test system: OVCAR-5 ovarian
CAKI-1 renal = test system: CAKI-1 renal
OVCAR-4 ovarian = test system: OVCAR-4 ovarian
NCI-H522 lung = test system: NCI-H522 lung
K-562 leukemia = test system: K-562 leukemia
CCRF-CEM leukemia = test system: CCRF-CEM leukemia
786-0 renal = test system: 786-0 renal
IGROV1 ovarian = test system: IGROV1 ovarian
UO-31 renal = test system: UO-31 renal
NCI/ADR-RES ovarian = test system: NCI/ADR-RES ovarian
SK-OV-3 ovarian = test system: SK-OV-3 ovarian
MOLT-4 leukemia = test system: MOLT-4 leukemia
SF-539 CNS = test system: SF-539 CNS
KM12 colon = test system: KM12 colon
HL-60(TB) leukemia = test system: HL-60(TB) leukemia
HS 578T breast = test system: HS 578T breast
SF-268 CNS = test system: SF-268 CNS
EKVX NSCLC = test system: EKVX NSCLC
SK-MEL-2 melanoma = test system: SK-MEL-2 melanoma
MDA-MB-231 breast = test system: MDA-MB-231 breast
UACC-257 melanoma = test system: UACC-257 melanoma
SNB-75 CNS = test system: SNB-75 CNS
BT-549 breast = test system: BT-549 breast
NCI-H226 lung = test system: NCI-H226 lung

COc1cc2c3c(n(CCCN=[N+]=[N-])c(=O)c2cc1OC)-c1ccc([N+](=O)[O-])cc1C3=O
inactive: GI50 (SN12C renal) > 100 µM | GI50 (SK-MEL-5 melanoma) > 100 µM | GI50 (HCT-116 colon) > 100 µM | GI50 (MCF7 breast) 27.9 µM | GI50 (SF-295 CNS) > 100 µM | GI50 (HOP-62 NSCLC) 89.7 µM | GI50 (SW-620 colon) 55.3 µM | GI50 (RPMI-8226 leukemia) 90.7 µM | GI50 (HCT-15 colon) > 100 µM | GI50 (TK-10 renal) > 100 µM | GI50 (SK-MEL-28 melanoma) > 100 µM | GI50 (OVCAR-3 ovarian) > 100 µM | GI50 (SR leukemia) 4.38 µM | GI50 (U251 CNS) > 100 µM | GI50 (A549 NSCLC) > 100 µM | GI50 (HT29 colon) > 100 µM | GI50 (COLO 205 colon) > 100 µM | GI50 (NCI-H460 lung) 49.5 µM | GI50 (LOX IMVI melanoma) 61 µM | GI50 (SNB-19 CNS) > 100 µM | GI50 (M14 melanoma) > 100 µM | GI50 (MDA-MB-435) > 100 µM | GI50 (OVCAR-8 ovarian) > 100 µM | GI50 (PC-3 prostate) > 100 µM | GI50 (NCI-H23 lung) 91.1 µM | GI50 (A498 renal) 96.7 µM | GI50 (T-47D breast) 50.1 µM | GI50 (HOP-92 NSCLC) 29.8 µM | GI50 (UACC-62 melanoma) 68.7 µM | GI50 (DU-145 prostate) 34.4 µM | GI50 (RXF 393 renal) > 100 µM | GI50 (ACHN renal) > 100 µM | GI50 (MALME-3M melanoma) > 100 µM | GI50 (OVCAR-5 ovarian) > 100 µM | GI50 (CAKI-1 renal) > 100 µM | GI50 (OVCAR-4 ovarian) > 100 µM | GI50 (NCI-H522 lung) 16.8 µM | GI50 (K-562 leukemia) > 100 µM | GI50 (CCRF-CEM leukemia) 38.7 µM | GI50 (786-0 renal) 50.3 µM | GI50 (UO-31 renal) 20 µM | GI50 (NCI/ADR-RES ovarian) 80 µM | GI50 (SK-OV-3 ovarian) > 100 µM | GI50 (MOLT-4 leukemia) 63.3 µM | GI50 (SF-539 CNS) 38.9 µM | GI50 (KM12 colon) > 100 µM | GI50 (HL-60(TB) leukemia) > 100 µM | GI50 (HS 578T breast) 48 µM | GI50 (SF-268 CNS) 33.4 µM | GI50 (EKVX NSCLC) 40.1 µM | GI50 (SK-MEL-2 melanoma) 36.5 µM | GI50 (MDA-MB-231 breast) 20.3 µM | GI50 (UACC-257 melanoma) > 100 µM | GI50 (SNB-75 CNS) 20.9 µM | GI50 (BT-549 breast) 14.4 µM
> 100 µM: TGI (SN12C renal) | TGI (SK-MEL-5 melanoma) | TGI (HCT-116 colon) | TGI (MCF7 breast) | TGI (SF-295 CNS) | TGI (HOP-62 NSCLC) | TGI (SW-620 colon) | TGI (RPMI-8226 leukemia) | TGI (HCT-15 colon) | TGI (TK-10 renal) | TGI (SK-MEL-28 melanoma) | TGI (OVCAR-3 ovarian) | TGI (U251 CNS) | TGI (A549 NSCLC) | TGI (HT29 colon) | TGI (COLO 205 colon) | TGI (NCI-H460 lung) | TGI (LOX IMVI melanoma) | TGI (SNB-19 CNS) | TGI (M14 melanoma) | TGI (MDA-MB-435) | TGI (OVCAR-8 ovarian) | TGI (PC-3 prostate) | TGI (NCI-H23 lung) | TGI (A498 renal) | TGI (T-47D breast) | TGI (HOP-92 NSCLC) | TGI (UACC-62 melanoma) | TGI (DU-145 prostate) | TGI (RXF 393 renal) | TGI (ACHN renal) | TGI (MALME-3M melanoma) | TGI (OVCAR-5 ovarian) | TGI (CAKI-1 renal) | TGI (OVCAR-4 ovarian) | TGI (NCI-H522 lung) | TGI (K-562 leukemia) | TGI (CCRF-CEM leukemia) | TGI (786-0 renal) | TGI (UO-31 renal) | TGI (NCI/ADR-RES ovarian) | TGI (SK-OV-3 ovarian) | TGI (MOLT-4 leukemia) | TGI (SF-539 CNS) | TGI (KM12 colon) | TGI (HL-60(TB) leukemia) | TGI (HS 578T breast) | TGI (SF-268 CNS) | TGI (EKVX NSCLC) | TGI (SK-MEL-2 melanoma) | TGI (MDA-MB-231 breast) | TGI (UACC-257 melanoma)
66.9 µM: TGI (SNB-75 CNS)
active: GI50 (IGROV1 ovarian) 0.215 µM
98.8 µM: TGI (BT-549 breast)
22.9 µM: TGI (SR leukemia)
35 µM: TGI (IGROV1 ovarian)

Cc1ccc(/C(=N/NS(=O)(=O)c2cc(C)c(Cl)cc2Cl)Sc2cc(Cl)c(C)cc2S(N)(=O)=O)cc1
> 100 µM: TGI (SN12C renal) | TGI (SK-MEL-5 melanoma) | TGI (HCT-116 colon) | TGI (MCF7 breast) | TGI (NCI-H226 lung) | TGI (SF-295 CNS) | TGI (HOP-62 NSCLC) | TGI (SW-620 colon) | TGI (RPMI-8226 leukemia) | TGI (HCT-15 colon) | TGI (TK-10 renal) | TGI (SK-MEL-28 melanoma) | TGI (OVCAR-3 ovarian) | TGI (SR leukemia) | TGI (U251 CNS) | TGI (A549 NSCLC) | TGI (HT29 colon) | TGI (COLO 205 colon) | TGI (NCI-H460 lung) | TGI (LOX IMVI melanoma) | TGI (SNB-19 CNS) | TGI (M14 melanoma) | TGI (MDA-MB-435) | TGI (OVCAR-8 ovarian) | TGI (PC-3 prostate) | TGI (NCI-H23 lung) | TGI (A498 renal) | TGI (T-47D breast) | TGI (UACC-62 melanoma) | TGI (DU-145 prostate) | TGI (RXF 393 renal) | TGI (ACHN renal) | TGI (MALME-3M melanoma) | TGI (OVCAR-5 ovarian) | TGI (CAKI-1 renal) | TGI (OVCAR-4 ovarian) | TGI (NCI-H522 lung) | TGI (K-562 leukemia) | TGI (CCRF-CEM leukemia) | TGI (786-0 renal) | TGI (IGROV1 ovarian) | TGI (UO-31 renal) | TGI (NCI/ADR-RES ovarian) | TGI (SK-OV-3 ovarian) | TGI (MOLT-4 leukemia) | TGI (SF-539 CNS) | TGI (KM12 colon) | TGI (HL-60(TB) leukemia) | TGI (HS 578T breast) | TGI (SF-268 CNS) | TGI (EKVX NSCLC) | TGI (SK-MEL-2 melanoma) | TGI (MDA-MB-231 breast) | TGI (UACC-257 melanoma) | TGI (SNB-75 CNS) | TGI (BT-549 breast)
inactive: GI50 (SN12C renal) > 100 µM | GI50 (SK-MEL-5 melanoma) > 100 µM | GI50 (HCT-116 colon) > 100 µM | GI50 (MCF7 breast) > 100 µM | GI50 (NCI-H226 lung) > 100 µM | GI50 (SF-295 CNS) > 100 µM | GI50 (HOP-62 NSCLC) > 100 µM | GI50 (SW-620 colon) > 100 µM | GI50 (RPMI-8226 leukemia) 51.3 µM | GI50 (HCT-15 colon) > 100 µM | GI50 (TK-10 renal) > 100 µM | GI50 (SK-MEL-28 melanoma) > 100 µM | GI50 (OVCAR-3 ovarian) 59 µM | GI50 (SR leukemia) 41 µM | GI50 (U251 CNS) > 100 µM | GI50 (A549 NSCLC) > 100 µM | GI50 (HT29 colon) > 100 µM | GI50 (COLO 205 colon) > 100 µM | GI50 (NCI-H460 lung) > 100 µM | GI50 (LOX IMVI melanoma) > 100 µM | GI50 (SNB-19 CNS) > 100 µM | GI50 (M14 melanoma) > 100 µM | GI50 (MDA-MB-435) > 100 µM | GI50 (OVCAR-8 ovarian) > 100 µM | GI50 (PC-3 prostate) > 100 µM | GI50 (NCI-H23 lung) > 100 µM | GI50 (A498 renal) > 100 µM | GI50 (T-47D breast) > 100 µM | GI50 (UACC-62 melanoma) > 100 µM | GI50 (DU-145 prostate) 49.7 µM | GI50 (RXF 393 renal) 90.9 µM | GI50 (ACHN renal) 86.4 µM | GI50 (MALME-3M melanoma) 63.6 µM | GI50 (OVCAR-5 ovarian) > 100 µM | GI50 (CAKI-1 renal) > 100 µM | GI50 (OVCAR-4 ovarian) > 100 µM | GI50 (NCI-H522 lung) > 100 µM | GI50 (K-562 leukemia) 70.1 µM | GI50 (CCRF-CEM leukemia) > 100 µM | GI50 (786-0 renal) > 100 µM | GI50 (IGROV1 ovarian) > 100 µM | GI50 (UO-31 renal) > 100 µM | GI50 (NCI/ADR-RES ovarian) > 100 µM | GI50 (SK-OV-3 ovarian) > 100 µM | GI50 (MOLT-4 leukemia) 17.9 µM | GI50 (SF-539 CNS) > 100 µM | GI50 (KM12 colon) > 100 µM | GI50 (HL-60(TB) leukemia) 70 µM | GI50 (HS 578T breast) > 100 µM | GI50 (SF-268 CNS) > 100 µM | GI50 (EKVX NSCLC) 70.9 µM | GI50 (SK-MEL-2 melanoma) > 100 µM | GI50 (MDA-MB-231 breast) > 100 µM | GI50 (UACC-257 melanoma) > 100 µM | GI50 (SNB-75 CNS) > 100 µM | GI50 (BT-549 breast) 83.5 µM
